In ChEMBL document CHEMBL1201862, “PubChem BioAssay data set” (2004):
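Tested at 5 concentrations; 48 h exposure; 96-well plates; endpoints linearly interpolated, else capped at highest concentration. GI50 is the concentration that inhibits growth by half.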 Active and inactive are the calls of the source. No stated cut-off is given here; in the data, active = GI50 up to about 1.1 µM and inactive = higher.

Experiments:
Test in all cases: NCI anticancer screen, dose series, 48 h
[1] = system: NCI-H23
[2] = system: LOX IMVI
[3] = system: CCRF-CEM
[4] = system: PC-3
[5] = system: HOP-62
[6] = system: TK-10
[7] = system: K562
[8] = system: IGROV-1
[9] = system: U-251
[10] = system: ACHN
[11] = system: SK-OV-3
[12] = system: SW-620
[13] = system: MOLT-4
[14] = system: BT-549
[15] = system: Hs-578T
[16] = system: KM12
[17] = system: SNB-19
[18] = system: HL-60
[19] = system: MCF7
[20] = system: RXF 393
[21] = system: HCC 2998
[22] = system: UO-31
[23] = system: OVCAR-5
[24] = system: NCI-H460
[25] = system: SK-MEL-28
[26] = system: SF-295
[27] = system: HCT-116
[28] = system: HT-29
[29] = system: SK-MEL-5
[30] = system: SN12C
[31] = system: SF-268
[32] = system: UACC-62
[33] = system: A549
[34] = system: SF-539
[35] = system: HCT-15
[36] = system: SNB-75
[37] = system: OVCAR-3
[38] = system: SK-MEL-2
[39] = system: A498
[40] = system: DU-145
[41] = system: EKVX
[42] = system: MDA-N
[43] = system: NCI/ADR-RES
[44] = system: CAKI-1
[45] = system: OVCAR-4
[46] = system: COLO 205
[47] = system: T47D
[48] = system: M14
[49] = system: RPMI-8226
[50] = system: NCI-H522
[51] = system: OVCAR-8
[52] = system: MDA-MB-231
[53] = system: MDA-MB-435
[54] = system: UACC-257
[55] = system: Malme-3M
[56] = system: HOP-92
[57] = system: 786-0
[58] = system: NCI-H226
[59] = system: SR

## O=C(O)c1cccc2cccc(-c3c4ccc(=O)cc-4oc4cc(O)ccc34)c12
[1]
  GI50: > 100 µM (inactive)
[2]
  GI50: > 100 µM (inactive)
[3]
  GI50: 69.2 µM (inactive)
[4]
  GI50: > 100 µM (inactive)
[5]
  GI50: 16.4 µM (inactive)
[6]
  GI50: > 100 µM (inactive)
[7]
  GI50: 31 µM (inactive)
[8]
  GI50: 75 µM (inactive)
[9]
  GI50: > 100 µM (inactive)
[10]
  GI50: > 100 µM (inactive)
[11]
  GI50: 33.4 µM (inactive)
[12]
  GI50: 49.7 µM (inactive)
[13]
  GI50: 27.3 µM (inactive)
[14]
  GI50: > 100 µM (inactive)
[15]
  GI50: 93.1 µM (inactive)
[16]
  GI50: > 100 µM (inactive)
[17]
  GI50: > 100 µM (inactive)
[18]
  GI50: 62.7 µM (inactive)
[19]
  GI50: > 100 µM (inactive)
[20]
  GI50: > 100 µM (inactive)
[21]
  GI50: > 100 µM (inactive)
[22]
  GI50: > 100 µM (inactive)
[23]
  GI50: > 100 µM (inactive)
[24]
  GI50: > 100 µM (inactive)
[25]
  GI50: > 100 µM (inactive)
[26]
  GI50: 34.8 µM (inactive)
[27]
  GI50: > 100 µM (inactive)
[28]
  GI50: > 100 µM (inactive)
[29]
  GI50: > 100 µM (inactive)
[30]
  GI50: > 100 µM (inactive)
[31]
  GI50: > 100 µM (inactive)
[32]
  GI50: > 100 µM (inactive)
[33]
  GI50: > 100 µM (inactive)
[34]
  GI50: > 100 µM (inactive)
[35]
  GI50: > 100 µM
[36]
  GI50: 60.1 µM (inactive)
[37]
  GI50: 21.3 µM (inactive)
[38]
  GI50: > 100 µM (inactive)
[39]
  GI50: > 100 µM (inactive)
[40]
  GI50: > 100 µM (inactive)
[41]
  GI50: > 100 µM (inactive)
[42]
  GI50: 71 µM (inactive)
[43]
  GI50: > 100 µM (inactive)
[44]
  GI50: > 100 µM (inactive)
[45]
  GI50: > 100 µM (inactive)
[46]
  GI50: 98.6 µM (inactive)
[47]
  GI50: > 100 µM (inactive)
[48]
  GI50: > 100 µM (inactive)
[49]
  GI50: 32.6 µM (inactive)
[50]
  GI50: > 100 µM (inactive)
[51]
  GI50: > 100 µM (inactive)
[52]
  GI50: 81.1 µM (inactive)
[53]
  GI50: > 100 µM (inactive)
[54]
  GI50: > 100 µM (inactive)
[55]
  GI50: > 100 µM (inactive)

## O=[N+]([O-])c1ccc(NN/N=N/c2ccc(-c3nc4ccccc4s3)cc2)c([N+](=O)[O-])c1
[56]
  GI50: 21 µM (inactive)
[1]
  GI50: 20.7 µM (inactive)
[2]
  GI50: 17.3 µM (inactive)
[3]
  GI50: 28.6 µM (inactive)
[4]
  GI50: 24.4 µM (inactive)
[5]
  GI50: 21.9 µM (inactive)
[57]
  GI50: 20.8 µM (inactive)
[6]
  GI50: 36.9 µM (inactive)
[7]
  GI50: 22.7 µM (inactive)
[8]
  GI50: 19.9 µM (inactive)
[9]
  GI50: 23.4 µM (inactive)
[10]
  GI50: 22.2 µM (inactive)
[11]
  GI50: 28.7 µM (inactive)
[12]
  GI50: 37.6 µM (inactive)
[13]
  GI50: 13.7 µM (inactive)
[14]
  GI50: 23.8 µM (inactive)
[15]
  GI50: 33.5 µM (inactive)
[16]
  GI50: 27.5 µM (inactive)
[17]
  GI50: 31.1 µM (inactive)
[18]
  GI50: 16 µM (inactive)
[20]
  GI50: 18.7 µM (inactive)
[21]
  GI50: 17.8 µM (inactive)
[22]
  GI50: 19.1 µM (inactive)
[23]
  GI50: 23.8 µM (inactive)
[24]
  GI50: 22.3 µM (inactive)
[25]
  GI50: 33.7 µM (inactive)
[26]
  GI50: 19.5 µM (inactive)
[58]
  GI50: 29.5 µM (inactive)
[27]
  GI50: 17.5 µM (inactive)
[28]
  GI50: 18.8 µM (inactive)
[29]
  GI50: 15.3 µM (inactive)
[30]
  GI50: 22.6 µM (inactive)
[31]
  GI50: 26.5 µM (inactive)
[32]
  GI50: 14 µM (inactive)
[33]
  GI50: 27.7 µM (inactive)
[34]
  GI50: 18.8 µM (inactive)
[35]
  GI50: 22.7 µM
[36]
  GI50: 24.8 µM (inactive)
[37]
  GI50: 19.8 µM (inactive)
[38]
  GI50: 21 µM (inactive)
[39]
  GI50: 4.34 µM (inactive)
[40]
  GI50: 30.7 µM (inactive)
[41]
  GI50: 15 µM (inactive)
[42]
  GI50: 19 µM (inactive)
[43]
  GI50: 25.1 µM (inactive)
[44]
  GI50: 26.5 µM (inactive)
[45]
  GI50: 24.6 µM (inactive)
[46]
  GI50: 16.4 µM (inactive)
[47]
  GI50: 19.1 µM (inactive)
[48]
  GI50: 18.2 µM (inactive)
[59]
  GI50: 26.8 µM (inactive)
[50]
  GI50: 25 µM (inactive)
[51]
  GI50: 24.3 µM (inactive)
[52]
  GI50: 22.3 µM (inactive)
[53]
  GI50: 24.1 µM (inactive)
[54]
  GI50: 18.9 µM (inactive)
[55]
  GI50: 28.2 µM (inactive)

## CCC(C)(C)c1ccc(OCCCCNC(=O)c2ccc3ccccc3c2O)c(C(C)(C)CC)c1
[1]
  GI50: 23.7 µM (inactive)
[3]
  GI50: 9.68 µM (inactive)
[4]
  GI50: 6.08 µM (inactive)
[5]
  GI50: 33 µM (inactive)
[57]
  GI50: 15.1 µM (inactive)
[6]
  GI50: 13.4 µM (inactive)
[7]
  GI50: 4.54 µM (inactive)
[8]
  GI50: 31.2 µM (inactive)
[9]
  GI50: 43 µM (inactive)
[10]
  GI50: 16 µM (inactive)
[11]
  GI50: 74 µM (inactive)
[12]
  GI50: 18.3 µM (inactive)
[13]
  GI50: 16.1 µM (inactive)
[14]
  GI50: 30.8 µM (inactive)
[15]
  GI50: 31.5 µM (inactive)
[16]
  GI50: 44.8 µM (inactive)
[17]
  GI50: 55.2 µM (inactive)
[18]
  GI50: 29.1 µM (inactive)
[19]
  GI50: 28.3 µM (inactive)
[21]
  GI50: 38.3 µM (inactive)
[22]
  GI50: 29.3 µM (inactive)
[23]
  GI50: 69.5 µM (inactive)
[24]
  GI50: 23.1 µM (inactive)
[25]
  GI50: 13.6 µM (inactive)
[26]
  GI50: 48.3 µM (inactive)
[58]
  GI50: 12.6 µM (inactive)
[27]
  GI50: 17.6 µM (inactive)
[28]
  GI50: 44.7 µM (inactive)
[29]
  GI50: 19.3 µM (inactive)
[30]
  GI50: 34.6 µM (inactive)
[31]
  GI50: 22.7 µM (inactive)
[32]
  GI50: 16.3 µM (inactive)
[33]
  GI50: 27.2 µM (inactive)
[34]
  GI50: 33.1 µM (inactive)
[35]
  GI50: 0.425 µM
[36]
  GI50: 29.8 µM (inactive)
[37]
  GI50: 19.4 µM (inactive)
[38]
  GI50: 30.8 µM (inactive)
[39]
  GI50: 29.7 µM (inactive)
[40]
  GI50: 54.7 µM (inactive)
[41]
  GI50: 21.8 µM (inactive)
[42]
  GI50: 35.6 µM (inactive)
[43]
  GI50: 25.4 µM (inactive)
[44]
  GI50: 23 µM (inactive)
[45]
  GI50: > 100 µM (inactive)
[46]
  GI50: 14.2 µM (inactive)
[47]
  GI50: 31 µM (inactive)
[48]
  GI50: 48.9 µM (inactive)
[59]
  GI50: > 100 µM (inactive)
[50]
  GI50: 14.6 µM (inactive)
[51]
  GI50: 27.5 µM (inactive)
[52]
  GI50: 30 µM (inactive)
[54]
  GI50: 28 µM (inactive)
[55]
  GI50: 11 µM (inactive)
